Test [1] concerns the target T1, varicella zoster virus DNA polymerase (Varicella-zoster virus, UniProt P09252).
T1 construct: made in house; host or cells: SF21 insect cells (baculovirus vector)
Kind of test: VZV polymerase assay (AlphaLISA, IC50). The test is classed as biochemical. Particulars: polymerase assay of Example 190. Put shortly:
(§1)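 Baculovirus-expressed polymerase (HCMV 0.2 nM, VZV 0.4 nM final) preincubated 30 min at room temperature with compound in pH 7.5 HEPES buffer; reaction started with 1.6 nM DIG-primer/template and nM dNTPs including biotin-dUTP, run 60 min at 37° C. Incorporation detected by AlphaLISA; IC50 from 4-parameter fit.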
(Alpha assays give light when donor and acceptor beads are brought close together.)

The subject of test [2] is HCMV Strain AD169 in MRC-5 cells. Nature of the test: Viral qPCR assay HCMV (V0/V1, V2/V3), EC50. The test is classed as cell-based. To be noted: Human betaherpesvirus 5, AD169, MRC5, viral qPCR assay of Example 191; read-out: HCMV Cell (EC50). In short, it runs like this: (§2)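 Infected cells added to compounds (10-point 3-fold series), ~72 h at 37 °C, then lysed; viral genomes by TaqMan qPCR against plasmid standard, normalized to PPIA in V0/V1 only, EC50 from 4-parameter fit. HCMV AD169, 0.05-0.1 pfu/cell, ± 50% FBS; VZV 0.04-0.1 pfu/cell; HSV-1 F 0.0005-0.004 pfu/cell.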

Test [3] deals with HSV-1 Strain F in Vero or MRC5 cells. Nature of the test: Viral qPCR assay HSV-1 (V0/V1, V2/V3), EC50. The test is classed as cell-based. Particulars: 10%. Put shortly:
as §2
For orientation: In qPCR the cycle at which signal appears reflects the starting amount.

Test [4] deals with VZV in MeWo or MRC5 cells. Nature of the test: Viral qPCR assay VZV (V0/V1, V2/V3), EC50. The test is classed as cell-based. To be noted: 10%. Put shortly: as §2
The target in test [5] is T2, Human cytomegalovirus DNA polymerase (Human cytomegalovirus, UniProt P08546).
T2 construct: made in house; host or cells: SF21 insect cells (baculovirus vector)
Nature of the test: HCMV polymerase assay (AlphaLISA, IC50). Particulars: polymerase assay of Example 190. The class given is biochemical. In short, it runs like this:
as §1

Setting [6] is: Human alphaherpesvirus 1, MRC5, MRC5 cells, read-out: HSV1 Cell (EC50) MRC5 10%.
Where [7] appears, read: Human alphaherpesvirus 1, Vero, VERO cells, read-out: HSV1 Cell (EC50) VERO 10%.
Where [8] appears, read: Human alphaherpesvirus 3, MRC5, MRC5 cells, read-out: VZV Cell (EC50) MRC5 10%.
Where [9] appears, read: Human alphaherpesvirus 3, MeWo, MEWO cells, read-out: VZV Cell (EC50) MEWO 10%.

Read-outs that look alike come from different tables or passages of the source.

Broadly, the IC50 is the concentration at which inhibition is half-maximal. In general, EC50 refers to the concentration needed to bring the measured effect to its halfway point.

T2 sequence (P08546 whole entry): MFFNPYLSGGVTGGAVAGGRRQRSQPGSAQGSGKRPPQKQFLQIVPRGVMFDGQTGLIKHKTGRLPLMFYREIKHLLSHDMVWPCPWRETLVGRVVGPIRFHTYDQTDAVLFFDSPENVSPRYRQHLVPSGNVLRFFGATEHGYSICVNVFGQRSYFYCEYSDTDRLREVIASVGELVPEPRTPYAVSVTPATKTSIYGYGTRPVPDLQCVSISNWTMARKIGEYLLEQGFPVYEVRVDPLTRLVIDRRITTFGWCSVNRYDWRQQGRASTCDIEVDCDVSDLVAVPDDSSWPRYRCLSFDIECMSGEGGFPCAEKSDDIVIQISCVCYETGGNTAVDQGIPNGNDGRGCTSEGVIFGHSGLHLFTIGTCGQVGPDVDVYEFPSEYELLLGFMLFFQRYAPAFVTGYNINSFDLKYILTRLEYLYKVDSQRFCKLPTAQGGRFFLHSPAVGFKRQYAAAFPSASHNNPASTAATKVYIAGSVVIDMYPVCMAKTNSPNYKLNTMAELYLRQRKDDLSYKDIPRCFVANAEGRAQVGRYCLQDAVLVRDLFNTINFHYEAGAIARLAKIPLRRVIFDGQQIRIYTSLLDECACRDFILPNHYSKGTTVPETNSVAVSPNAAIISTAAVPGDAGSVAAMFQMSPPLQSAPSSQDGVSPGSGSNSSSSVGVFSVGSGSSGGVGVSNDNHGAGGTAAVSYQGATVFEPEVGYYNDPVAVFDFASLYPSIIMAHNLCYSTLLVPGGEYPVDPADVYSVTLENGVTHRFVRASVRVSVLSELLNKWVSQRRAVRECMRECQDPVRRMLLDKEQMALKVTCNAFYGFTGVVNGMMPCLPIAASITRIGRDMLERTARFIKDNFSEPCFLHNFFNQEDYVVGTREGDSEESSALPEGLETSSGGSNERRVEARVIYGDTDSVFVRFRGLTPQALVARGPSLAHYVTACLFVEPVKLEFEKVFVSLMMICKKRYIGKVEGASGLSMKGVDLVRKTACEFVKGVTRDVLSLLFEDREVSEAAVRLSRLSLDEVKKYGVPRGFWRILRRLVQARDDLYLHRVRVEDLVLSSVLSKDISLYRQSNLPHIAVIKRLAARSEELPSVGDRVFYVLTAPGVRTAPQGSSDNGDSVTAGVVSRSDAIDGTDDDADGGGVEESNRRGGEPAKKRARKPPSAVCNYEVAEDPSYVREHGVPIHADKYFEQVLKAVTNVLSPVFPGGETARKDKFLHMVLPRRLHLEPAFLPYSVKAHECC
T1 sequence (P09252 whole entry): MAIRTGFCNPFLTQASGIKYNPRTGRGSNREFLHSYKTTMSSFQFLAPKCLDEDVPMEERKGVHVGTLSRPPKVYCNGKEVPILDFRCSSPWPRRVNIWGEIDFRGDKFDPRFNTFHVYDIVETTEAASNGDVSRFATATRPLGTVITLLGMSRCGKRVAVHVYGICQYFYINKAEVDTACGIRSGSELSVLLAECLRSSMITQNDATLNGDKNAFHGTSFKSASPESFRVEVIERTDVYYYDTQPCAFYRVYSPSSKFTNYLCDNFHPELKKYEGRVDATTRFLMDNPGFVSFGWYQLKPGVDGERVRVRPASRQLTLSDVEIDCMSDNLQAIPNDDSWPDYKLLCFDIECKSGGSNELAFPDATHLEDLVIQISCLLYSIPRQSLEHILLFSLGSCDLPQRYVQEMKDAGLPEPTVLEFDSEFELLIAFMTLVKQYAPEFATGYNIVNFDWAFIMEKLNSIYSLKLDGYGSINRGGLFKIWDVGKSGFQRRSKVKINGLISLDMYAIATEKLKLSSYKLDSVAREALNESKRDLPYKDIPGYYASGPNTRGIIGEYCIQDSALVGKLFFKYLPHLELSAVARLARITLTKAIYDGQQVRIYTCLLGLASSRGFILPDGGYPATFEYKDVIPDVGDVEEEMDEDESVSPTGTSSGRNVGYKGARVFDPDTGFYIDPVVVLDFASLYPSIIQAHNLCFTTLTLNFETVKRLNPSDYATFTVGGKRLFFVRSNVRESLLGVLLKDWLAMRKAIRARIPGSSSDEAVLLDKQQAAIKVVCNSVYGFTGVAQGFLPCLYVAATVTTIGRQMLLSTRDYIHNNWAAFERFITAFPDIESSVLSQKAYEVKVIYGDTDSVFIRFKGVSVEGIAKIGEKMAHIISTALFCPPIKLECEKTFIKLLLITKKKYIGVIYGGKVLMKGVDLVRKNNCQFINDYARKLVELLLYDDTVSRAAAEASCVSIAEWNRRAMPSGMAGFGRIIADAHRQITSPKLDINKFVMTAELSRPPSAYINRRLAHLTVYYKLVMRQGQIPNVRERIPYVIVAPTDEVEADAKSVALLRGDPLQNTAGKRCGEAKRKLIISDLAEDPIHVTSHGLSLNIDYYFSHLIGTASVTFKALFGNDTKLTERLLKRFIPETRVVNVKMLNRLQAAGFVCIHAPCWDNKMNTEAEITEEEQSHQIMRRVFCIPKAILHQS

For `COCCn1cc(-c2cnc(C(=O)NCc3ccc(Cl)cc3)cc2O[C@H]2CCN3C(=O)OC[C@@H]3C2)cn1` [Compound 31], the 50% inhibitory concentration (IC50) in test [1] amounted to 6.54 nM; in test [5], 8.59 nM. The concentration for a half-maximal effect (EC50) in test [2] was found to be 116 nM; in test [3] (setting [6]) it was 224 nM; in test [3] (setting [7]), 309 nM; in test [4] (setting [8]), 260 nM; in test [4] (setting [9]) it was 111 nM.

`CC(=O)N1CCC(Oc2cc(C(=O)NCc3ccc(Cl)cc3)ncc2-c2ccn(C)n2)CC1` [Compound 61]: the IC50 came to 181 nM in test [1] and 238 nM in test [5]. Moreover, the figures for the EC50 in test [2], in test [3] (setting [7]) and in test [4] (setting [9]) were 484 nM, 108 nM and 81.6 nM, respectively.

In the case of `CC(C)(O)Cn1cc(-c2cnc(C(=O)NCc3ccc(Cl)cc3)cc2O[C@H]2CCN3C(=O)OC[C@@H]3C2)cn1` [Compound 35], the IC50 in test [1] was found to be 7.5 nM; in test [5], 8.15 nM. In addition, the EC50 in test [2] worked out at 396 nM; in test [3] (setting [6]), 205 nM; in test [3] (setting [7]), 1000 nM; in test [4] (setting [8]), 440 nM.

As to `COc1cc(-c2cnc(C(=O)NCc3ccc(Cl)cc3)cc2OC2CCN(C(C)=O)CC2)sn1` [Compound 45], the IC50 in test [1] stood at 3.37 nM; in test [5], 28.9 nM. Moreover, the results for the half-maximal effective concentration (EC50) in test [2], in test [3] (setting [6]) and in test [4] (setting [8]) were 455 nM, 135 nM and 128 nM, respectively.

Consider `Cn1cc(-c2cnc(C(=O)NCc3ccc(Cl)cc3)cc2OC2CCN3C(=O)OCC3(C)C2)cn1` (stereo not drawn) [Compound 159], for which the results for the IC50 in test [1] and in test [5] were 19.3 nM and 59.2 nM, respectively. In addition, the half-maximal effective concentration (EC50) is 441 nM in test [2], 329 nM in test [3] (setting [7]) and 277 nM in test [4] (setting [9]).

As for `CC(C)CCn1cc(-c2cnc(C(=O)NCc3ccc(Cl)cc3)cc2O[C@H]2CCN3C(=O)OC[C@@H]3C2)cn1` (racemic) [Compound 9], the IC50 in test [1] stood at 114 nM; in test [5] it was 147 nM. Moreover, the EC50 in test [2] was 582 nM; in test [3] (setting [7]), 1130 nM; in test [4] (setting [9]), 859 nM.

Consider `O=C(NCc1ccc(Cl)cc1)c1cc(O[C@H]2CCN3C(=O)OC[C@@H]3C2)c(-c2cnn(CC(F)F)c2)cn1` [Compound 27], for which the figures for the half-maximal inhibitory concentration (IC50) in test [1] and in test [5] were 12.5 nM and 14.1 nM, respectively. Besides, the EC50 in test [2] came to 138 nM; in test [3] (setting [7]), 300 nM; in test [4] (setting [9]), 248 nM.

As for `COCCn1ccc(-c2cnc(C(=O)NCc3ccc(Cl)cc3)cc2O[C@H]2CCN3C(=O)OC[C@@H]3C2)n1` [Compound 28], the IC50 worked out at 12.7 nM in test [1] and 14.7 nM in test [5]. Also, the values for the EC50 in test [2], in test [3] (setting [7]) and in test [4] (setting [9]) were 325 nM, 327 nM and 422 nM, respectively.

As to `CC(=O)N1CCC(Oc2cc(C(=O)NCc3ccc(Cl)cc3)ncc2/C=C\c2ccccn2)CC1` [Compound 77], the IC50 in test [1] came out at 37.2 nM; in test [5] it was 103 nM. The EC50 was determined as 825 nM in test [2], 122 nM in test [3] (setting [7]) and 230 nM in test [4] (setting [9]).

For the molecule `CC(=O)N1CC[C@@H](Oc2cc(C(=O)NCc3ccc(Cl)cc3)ncc2-c2cnc(C)o2)C[C@H]1C` [Compound 165], the values for the IC50 in test [1] and in test [5] were 6.25 nM and 5.28 nM, respectively. In addition, the EC50 worked out at 141 nM in test [2], 122 nM in test [3] (setting [6]) and 138 nM in test [4] (setting [8]).

Take `CC(=O)N1CCC(Oc2cc(C(=O)NCc3ccc(Cl)cc3)ncc2-c2cc(C)ns2)CC1` [Compound 44]: the IC50 is 1.98 nM in test [1] and 26.2 nM in test [5]. For the same molecule, the values for the EC50 in test [2], in test [3] (setting [6]) and in test [4] (setting [8]) were 182 nM, 154 nM and 120 nM, respectively.

On to `CCCn1cc(-c2cnc(C(=O)NCc3ccc(Cl)cc3)cc2O[C@H]2CCN3C(=O)OC[C@@H]3C2)cn1` (racemic) [Compound 13], for which the concentration for half-maximal inhibition (IC50) is 38 nM in test [1] and 50.9 nM in test [5]. The values for the EC50 in test [2], in test [3] (setting [7]) and in test [4] (setting [9]) were 363 nM, 388 nM and 601 nM, respectively.

For the origin of these results see patent US20240067657A1, “AMIDO-SUBSTITUTED PYRIDYL COMPOUNDS AND METHODS OF USE THEREOF FOR THE TREATMENT OF HERPESVIRUSES” (Merck Sharp & Dohme LLC, priority 2020, published 2024).
